This note sets out measurements from patent US12415830B2, “Steroid compound, and use thereof and preparation method therefor” (Chengdu Kanghong Pharmaceutical Co Ltd, priority 2019, dated 2025).

Some results are limits rather than exact numbers.

One data set has as its system mice. Put plainly: Observation of side effects (gait, mobility, prone behavior) during administration in the elevated plus maze experiment. It counts as in vivo. Also noted: key to Gait, Level / mobility, Level / prone behavior, Level: “+” indicates severity; ++: “+” indicates severity; +++: three “+” are the most severe, with time to resume normal action >60 minutes. As to conditions: for side effects compared to the positive drug: 3 mg/kg, mice; for Gait, Number / mobility, Number / prone behavior, Number: 10 mice per group. How it is done: Since the drugs which are acting on GABA (A) receptor can produce behavioral anesthesia (side effects), side effects of mice during administration were observed during the course of the elevated plus maze experiment. […] “+” indicates severity, three “+” are the most severe, with time to resume normal action >60 minutes.

Another data set has as its target T1, GABAA1 (α1β2γ2) receptor (Homo sapiens, UniProt P14867+P47870).
T1 construct: expressed in transfected cells
Put plainly: Patch-clamp electrophysiology on recombinant GABAA1 receptor in HEK293 cells, with 3 μM GABA. It counts as cell-based. Particulars: for Emax at 0.1 µM / Emax at 1 µM / Emax: HEK293; for Emax at 0.1 µM: 0.1 μM compound together with 3 μmol GABA; for Emax at 0.1 µM / Emax at 1 µM: read-out: potency: ratio of the peak current on the GABAA1 receptor to the peak current in 100 μmol GABA; for Emax at 1 µM: 1 μM compound together with 3 μmol GABA; for Emax / EC50: together with 3 μmol GABA; for Emax: relative to peak current in 100 μmol GABA. How it is done:
The present invention applies the two subunits of the recombinant GABAA receptor: α1β2γ2 and α4β3δ to evaluate the potency of the exemplary compounds in vitro by patch-clamp electrophysiology.
Extracellular fluid: 140 mM NaCl, 5 mM CsCl, 2 mM CaCl2·2H2O, 1 mM MgCl2·6H2O, 5 mM HEPES, 10 mM D-Glucose, pH=7.4 (NaOH).
Intracellular fluid: 130 mM CsCl, 0.1 mM CaCl2·H2O, 2 mM MgCl2·6H2O, 1.1 mM EGTA, 5 mM Na2-ATP, 10 mM HEPES, pH=7.2 (CsOH).
The HEK293 cells line stably expressing GABAA (α1β2γ2) receptors was cultured in Dulbecco's Modified Eagle Medium (DMEM) supplemented with 10% fetal bovine serum, 800 μg/mL G418, 200 μg/mL Hygromycin B and 100 μg/mL Zeocin. Cells were grown in a humidified incubator at 37° C. with 5% carbon dioxide.
Before manual patch clamp test, the cells were detached using 0.25%-Trypsin-EDTA solution. Then 8×10^3 cells were plated onto coverslips, and cultured in a 24-well plate (final medium volume: 500 μL) and tested after 18 hours by patch clamp.
Glass pipette (BF 150-86-10, Sutter Instruments) was pulled using a micropipette puller (P97, Sutter Instruments). The glass pipette was manipulated using a micro-manipulator (MP285, Sutter Instruments) under the microscope (IX71, Olympus). After touching the cell, a slight suction was applied to achieve high seal resistance (GQ). Fast capacitance (in pF) compensation was made after achieving high seal, and the membrane was broken. Cell capacitance (in pF) compensation was made from whole-cell capacitance compensation after the whole cell mode was achieved. No leak subtraction was made.
The test and control solutions flowed into a recording chamber mounted on the stage of an inverted microscope via a gravity-fed solution delivery system. During the experiment, solutions were withdrawn from the recording chamber by vacuum aspiration. Each concentration was tested at multiple times. All tests were performed at room temperature.
Whole cell model recorded GABAA1 receptors current experimental protocol was indicated as follows: When sealing, cell was at a holding potential of −70 mV, with gap-free mode to record the peak current. The cell would be applied with 3 μM GABA to active current. After the test articles application for 30 s, each concentration of test articles was applied with 3 μM GABA followed by 2 minutes washout using extracellular solution. Finally, 100 μM GABA was used as a positive control. The data were collected by EPC-10 amplifier and stored in PatchMaster (HEKA) software.
The following criteria are used to determine whether the data is acceptable: • (1) Electrode resistance <5MΩ • (2) Seal resistance >1GΩ • (3) The start of access resistance <15 MΩ • (4) The end of access resistance <15 MΩ • (5) No obvious spontaneous current decay. • (6) No obvious current leakage when the membrane potential is-70 mv. 56.6 Data Analysis
In the detection of GABAA1, the currents of 3 μM GABA and different concentrations of test compounds were respectively normalized to the current of 100 μM GABA
[formula] and then the activation rate corresponding to each concentration was calculated.
[formula] and then the activation rate corresponding to each concentration was calculated. Means, Standard Deviation and Standard Error were calculated for each test group. EC50 value was calculated using nonlinear regression: Y=Bottom+(Top−Bottom)/(1+10^((Log EC50−X)×HillSlope))
To fit data to the concentration-response, EC50 was the concentration giving a half-maximum effect and Hillslope was the Hill coefficient. Curve-fitting and EC50 calculations were performed using Graphpad5.0 software.
Emax is defined as the ratio of the peak current generated on the GABAA1 receptor to the peak current generated only in 100 μmol of GABA and the ratio is multiplied by 100%. The peak current generated on the GABAA1 receptor is that the exemplary compounds act on the GABAA1 receptor together with 3 μmol GABA.
(In general: The patch-clamp technique gives a direct electrical read-out from membranes.)

T1 sequence (P14867 28-456): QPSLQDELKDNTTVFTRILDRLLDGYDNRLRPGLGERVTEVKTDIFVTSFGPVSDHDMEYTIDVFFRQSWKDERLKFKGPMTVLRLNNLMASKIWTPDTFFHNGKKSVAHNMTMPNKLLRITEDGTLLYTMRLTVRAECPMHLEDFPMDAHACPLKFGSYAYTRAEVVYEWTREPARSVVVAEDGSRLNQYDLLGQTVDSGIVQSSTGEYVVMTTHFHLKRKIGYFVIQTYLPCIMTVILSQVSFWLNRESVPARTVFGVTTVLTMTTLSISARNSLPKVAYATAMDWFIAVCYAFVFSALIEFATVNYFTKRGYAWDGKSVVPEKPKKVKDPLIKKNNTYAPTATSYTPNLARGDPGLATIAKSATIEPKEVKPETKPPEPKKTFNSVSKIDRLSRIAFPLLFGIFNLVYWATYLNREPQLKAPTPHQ
T1 sequence (P47870 26-512): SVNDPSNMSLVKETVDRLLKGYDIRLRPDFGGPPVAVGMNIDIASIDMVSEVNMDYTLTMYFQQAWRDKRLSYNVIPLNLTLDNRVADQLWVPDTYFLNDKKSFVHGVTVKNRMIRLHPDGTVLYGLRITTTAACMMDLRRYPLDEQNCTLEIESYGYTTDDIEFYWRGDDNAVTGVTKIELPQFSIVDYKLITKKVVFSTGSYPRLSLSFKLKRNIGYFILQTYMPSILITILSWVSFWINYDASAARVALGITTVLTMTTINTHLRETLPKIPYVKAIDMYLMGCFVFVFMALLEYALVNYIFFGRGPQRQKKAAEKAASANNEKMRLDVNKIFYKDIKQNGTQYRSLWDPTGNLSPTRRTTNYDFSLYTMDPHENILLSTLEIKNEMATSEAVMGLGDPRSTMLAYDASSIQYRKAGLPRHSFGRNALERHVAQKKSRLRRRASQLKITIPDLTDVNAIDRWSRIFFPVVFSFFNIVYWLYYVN
T1 sequence (P18507 40-475 partner): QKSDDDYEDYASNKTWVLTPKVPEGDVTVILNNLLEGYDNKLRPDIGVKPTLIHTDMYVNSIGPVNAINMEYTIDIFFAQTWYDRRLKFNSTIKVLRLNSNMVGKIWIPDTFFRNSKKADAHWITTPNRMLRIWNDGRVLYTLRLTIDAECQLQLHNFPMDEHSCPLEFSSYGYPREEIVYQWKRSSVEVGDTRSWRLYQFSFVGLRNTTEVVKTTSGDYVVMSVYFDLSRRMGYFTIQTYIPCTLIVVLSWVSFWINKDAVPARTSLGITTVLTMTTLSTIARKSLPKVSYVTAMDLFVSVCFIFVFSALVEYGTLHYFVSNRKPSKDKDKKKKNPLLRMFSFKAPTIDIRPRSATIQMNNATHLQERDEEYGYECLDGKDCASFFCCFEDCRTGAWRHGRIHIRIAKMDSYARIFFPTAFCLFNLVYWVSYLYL

As to `C[C@@]1(O)CC[C@@]2(C)[C@@H](CC[C@@H]3[C@@H]2CC[C@]2(C)[C@@H](C(=O)Cn4ncnn4)CCC[C@@H]32)C1` [KH022], the “side effects compared to the positive drug” value with mice is listed as “less side effects”. Further, in the data set on mice (3mg/kg, the first day), the “Gait, Level” value is listed as “+”; the “mobility, Level” value was “++”; the “Gait, Number” value turned out to be 3; the “mobility, Number” value is listed as 1. For the same compound, the “prone behavior, Number” value in the data set with mice (3mg/kg, the first day) is listed as 0. In addition, in the data set on mice (3mg/kg, the forth day), the “Gait, Level” value is listed as “+”; the “mobility, Level” value is recorded as “+”; the “Gait, Number” value is on record as 3; the “mobility, Number” value came out at 1. Further, in the data set on mice (3mg/kg, the forth day), the “prone behavior, Number” value came out at 0. For the same compound, in the data set with mice (3mg/kg, the second day), the “Gait, Level” value is “+”; the “Gait, Number” value came out at 2; the “mobility, Number” value was 0; the “prone behavior, Number” value came out at 0. In addition, in the data set on mice (3mg/kg, the third day), the “Gait, Level” value is given as “+”; the “Gait, Number” value is on record as 1; the “mobility, Number” value was 0; the “prone behavior, Number” value was 0. Besides, on GABAA1 (α1β2γ2) receptor, the Emax at 0.1 µM fell in the range of 0 to 20%, the Emax at 1 µM is 40 to 60%, the Emax was found to be 93.1% and the EC50 (usually the concentration at which the effect is half-maximal) was 821 nM.

For `C[C@]12CC[C@@H](O)C[C@@H]1CC[C@@H]1[C@@H]2CC[C@]2(C)[C@@H](C(=O)Cn3ncnn3)CCC[C@@H]12` [KH004], the “side effects compared to the positive drug” value with mice is on record as “less side effects”. Moreover, in the data set on mice (3mg/kg, the first day), the “Gait, Number” value was 0; the “mobility, Number” value turned out to be 0; the “prone behavior, Number” value is 0. Moreover, in the data set with mice (3mg/kg, the forth day), the “Gait, Number” value turned out to be 0; the “mobility, Number” value came out at 0; the “prone behavior, Number” value came out at 0. Moreover, in the data set with mice (3mg/kg, the second day), the “Gait, Number” value is recorded as 0; the “mobility, Number” value amounted to 0; the “prone behavior, Number” value is on record as 0. In addition, in the data set on mice (3mg/kg, the third day), the “Gait, Level” value is given as “+”; the “Gait, Number” value was found to be 1; the “mobility, Number” value is given as 0; the “prone behavior, Number” value is given as 0. Moreover, at GABAA1 (α1β2γ2) receptor, the Emax at 0.1 µM lay within 20 to 40%, the Emax at 1 µM is above 80%, the Emax was 106% and the EC50 worked out at 404 nM.

For `C[C@@]1(O)CC[C@H]2[C@H](CC[C@@H]3[C@@H]2CC[C@]2(C)[C@@H](C(=O)Cn4cc(C#N)cn4)CC[C@@H]32)C1` [The control, reference compound], in the data set with mice (3mg/kg, the first day), the “Gait, Level” value was “++”; the “mobility, Level” value is listed as “+++ (three “+” are the most severe, with time to resume normal action >60 minutes)”; the “prone behavior, Level” value is “+”; the “Gait, Number” value is on record as 7. In addition, in the data set on mice (3mg/kg, the first day), the “mobility, Number” value amounted to 3 and the “prone behavior, Number” value was 2. Further, in the data set on mice (3mg/kg, the forth day), the “Gait, Level” value is “+”; the “mobility, Level” value was “+”; the “Gait, Number” value came out at 9; the “mobility, Number” value is 5. The “prone behavior, Number” value in the data set with mice (3mg/kg, the forth day) came to 0. In the data set with mice (3mg/kg, the second day), the “Gait, Level” value is recorded as “++”; the “Gait, Number” value amounted to 6; the “mobility, Number” value came out at 0; the “prone behavior, Number” value came out at 0. Moreover, in the data set with mice (3mg/kg, the third day), the “Gait, Level” value is “+”; the “mobility, Level” value is recorded as “++”; the “Gait, Number” value was 8; the “mobility, Number” value worked out at 4. For the same compound, in the data set on mice (3mg/kg, the third day), the “prone behavior, Number” value was found to be 0. On GABAA1 (α1β2γ2) receptor, the Emax at 0.1 µM fell in the range of 0 to 20%, the Emax at 1 µM fell in the range of 20 to 40% and the Emax amounted to 84.2%.
